# Literature values in patent US10995093B2, “Synthesis of 2′-fluoro-6′-methylene-carbocyclic adenosine (FMCA) and 2′-fluoro-6′methylene-carbocyclic guanosine (FMCG)” (UNIVERSITY OF GEORGIA RESEARCH FOUNDATION, INC., priority 2016, dated 2021).
# “Also recorded” adds a separate entry of the source.
# Columns and labels:
# [1] = system: lamivudine, adefovir, and double lamivudine/entecavir-resistant mutants; conditions: drug-resistant mutants
# [2] = system: lamivudine/entecavir-resistant clone (L180M+M204V+S202G)
# [3] = no significant toxicity observed up to 100 μM
structure (smiles),measurement,setting,value
"C=C1[C@@H](n2cnc3c(N)ncnc32)[C@@H](F)[C@H](O)[C@H]1CO [FMCA, (1R,3R,5R)-3-(6-amino-9H-purin-9-yl)-2-fluoro-5-(hydroxymethyl)-4-methylenecyclopentanol]",activity against wild-type HBV,wild-type HBV,significant activity; also recorded: potential antiviral activity
same,"activity against lamivudine, adefovir, and double lamivudine/entecavir-resistant mutants",[1],significant activity
same,antiviral activity against lamivudine/entecavir-resistant clone,[2],potential antiviral activity
same,"mitochondrial and cellular toxicity, concentration up to which no significant toxicity was observed",[3],> 100 µM
